Measurements: EP2951180B1, “2,6,7,8 SUBSTITUTED PURINES AS HDM2 INHIBITORS” (Merck Sharp & Dohme Corp., priority 2013, dated 2014)
Like-named read-outs stand apart in the source and are kept apart here.

Biological target: T1, HDM2 (Homo sapiens, UniProt Q00987)
T1 construct: Thioredoxin (N); made in house; host or cells: E. coli strain BL21(DE3)Rosetta
Test: HDM2 FRET assay (inhibition of binding of FITC labeled p53-pocket peptide to HDM2)
Conditions: read-out: FRET IC50
How it was run: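 TR-FRET with 0.5 nM His-tagged recombinant HDM2, 3 nM FITC-labelled p53 peptide and 0.25 nM Tb-anti-His antibody in PBS, 0.01% BSA, 0.01% Tween-20, 0.1% DMSO. IC50 from em520/em495 ratio over 10-point dilutions, 4-parameter logistic fit.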

[1] = 0.5 nM HDM2 (residues 17 to 125), 3nM peptide, two hour incubation at room temperature

T1 sequence (Q00987 17-125): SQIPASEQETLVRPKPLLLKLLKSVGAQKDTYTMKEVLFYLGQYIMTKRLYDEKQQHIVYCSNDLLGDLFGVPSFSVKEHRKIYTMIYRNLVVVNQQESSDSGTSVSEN

SMILES: C[C@@H](Nc1nc(C(=O)O)nc2nc(N3CCCCC3)n(Cc3ccc(C(F)(F)F)cc3)c12)C1CCC1 [Example 9.11, 6-{[(1R)-1-cyclobutylethyl]amino}-8-piperidin-1-yl-7-[4-(trifluoromethyl)benzyl]-7H-purine-2-carboxylic acid]
- IC50 (Table 9): 17.6 nM

SMILES: CC[C@@H]1[C@@H](C)OCCN1c1nc2nc(-c3noc(=O)[nH]3)nc(-c3cncc(Cl)c3)c2n1C[C@H]1CC[C@H](C)CC1 [Example 16.152, 3-{6-(5-chloropyridin-3-yl)-8-[(2R,3R)-3-ethyl-2-methylmorpholin-4-yl]-7-[(trans-4-methylcyclohexyl)methyl]-7H-purin-2-yl}-1,2,4-oxadiazol-5(4H)-one]
- IC50 [1]: 5.68 nM

SMILES: C[C@@H](Nc1nc(C(=O)O)nc2nc(C(=O)N[C@@H](CO)c3ccccc3)n(Cc3ccc(C(F)(F)F)cc3)c12)C1CCC1 [Example 10.15, 6-(((R)-1-cyclobutylethyl)amino)-8-(((R)-2-hydroxy-1-phenylethyl)carbamoyl)-7-(4-(trifluoromethyl)benzyl)-7H-purine-2-carboxylic acid]
- IC50 (Table 10): 202 nM

SMILES: C[C@@H](Nc1nc(-c2noc(=O)[nH]2)nc2nc(N(C)[C@@H]3CCCC[C@@H]3O)n(C[C@H]3CC[C@H](C)CC3)c12)C1CCC1 (stereo in doubt) [Example 11.134, 3-(6-{[(1R)-1-cyclobutylethyl]amino}-8-{[(1R,2S)-2-hydroxycyclohexyl] (methyl)amino}-7-[(trans-4-methylcyclohexyl)methyl]-7H-purin-2-yl)-1,2,4-oxadiazol-5(4H)-one]
- IC50 (Table 11): 9.46 nM

SMILES: CCN1CCCCC1c1nc2nc(C(=O)O)nc(N[C@H](C)C3CCC3)c2n1Cc1ccc(C(F)(F)F)cc1 (stereo partly drawn) [Example 10.25, 6-(((R)-1-Cyclobutylethyl)amino)-8-(1-ethylpiperidin-2-yl)-7-(4-(trifluoromethyl)benzyl)-7H-purine-2-carboxylic acid]
- IC50 (Table 10): 35.4 nM

SMILES: C[C@H]1CC[C@H](Cn2c(N3CCO[C@@H]4CCC[C@H]43)nc3nc(-c4noc(=O)[nH]4)nc(-c4cccc(Cl)c4)c32)CC1 [Example 16.82, 3-{6-(3-chlorophenyl)-8-[(4aR,7aR)-hexahydrocyclopenta [b][1,4]oxazin-4(4aH)-yl]-7-[(trans-4-methylcyclohexyl)methyl]-7H-purin-2-yl}-1,2,4-oxadiazol-5(4H)-one]
- IC50 [1]: 1.1 nM

SMILES: C[C@@H](Nc1nc(-c2noc(=O)[nH]2)nc2nc(N3CCOCC3(C)C)n(Cc3ccc(C(F)(F)F)cc3)c12)C1CCC1 [Example 9.88, 3-(6-{[(1R)-1-cyclobutylethyl]amino}-8-(3,3-dimethylmorpholin-4-yl)-7-[4-(trifluoromethyl)benzyl]-7H-purin-2-yl)-1,2,4-oxadiazol-5(4H)-one]
- IC50 (Table 9): 12.2 nM

SMILES: C[C@H](O)[C@H](Nc1nc2nc(-c3n[nH]c(=O)o3)nc(-c3cccc(Cl)c3)c2n1C[C@H]1CC[C@H](C)CC1)c1ccccc1 [Example 16.57, 5-{6-(3-chlorophenyl)-8-{[(1R,2S)-2-hydroxy-1-phenylpropyl]amino} -7-[(trans-4-methylcyclohexyl)methyl]-7H-purin-2-yl}-1,3,4-oxadiazol-2(3H)-one]
- IC50 [1]: 5.54 nM

SMILES: C[C@@H](Nc1nc(-c2noc(=O)[nH]2)nc2nc(C(C)(O)c3ccccn3)n(C[C@H]3CC[C@H](C)CC3)c12)C1CCC1 (single isomer, unassigned) [Example 22.7]
- IC50 (Table 22): 19.9 nM

SMILES: Cc1cc(-c2ccccc2)nn1-c1nc2nc(C(=O)O)nc(N[C@H](C)C3CCC3)c2n1Cc1ccc(C(F)(F)F)cc1 [Example 9.61, 6-{[(1R)-1-cyclobutylethyl]amino}-8-(5-methyl-3-phenyl-1H-pyrazol-1-yl)-7-[4-(trifluoromethyl)benzyl]-7H-purine-2-carboxylic acid]
- IC50 (Table 9): 300 nM

SMILES: C[C@@H](Nc1nc(-c2noc(=O)[nH]2)nc2nc(N3CCCCC3c3cccnc3)n(C[C@H]3CC[C@H](C)CC3)c12)C1CCC1 (single isomer, unassigned) [Example 11.49]
- IC50 (Table 11): 2.43 nM

SMILES: CC(C)CC1CCCCN1c1nc2nc(C(=O)O)nc(N[C@H](C)C3CCC3)c2n1C[C@H]1CC[C@H](C)CC1 (stereo partly drawn) [Example 11.2, 6-(((R)-1-cyclobutylethyl)amino)-8-(2-isobutylpiperidin-1-yl)-7-((trans-4-methylcyclohexyl)methyl)-7H-purine-2-carboxylic acid]
- IC50 (Table 11): 1.82 nM

SMILES: CNC(=O)CC[C@@H](Nc1nc(C(=O)O)nc2nc(-c3cccc(C)c3)n(Cc3ccc(C(F)(F)F)cc3)c12)C1CCC1 [Example 7.13, 6-{[(1R)-1-cyclobutyl-4-(methylamino)-4-oxobutyl]amino}-8-(3-methylphenyl)-7-[4-(trifluoromethyl)benzyl]-7H-purine-2-carboxylic acid]
- IC50 (Table 7): 102 nM

SMILES: Cc1cccc(-c2nc3nc(C(=O)O)nc(NC4CCC(C)CC4C)c3n2Cc2ccc(C(F)(F)F)cc2)c1 (stereo not drawn) [Example 6.33, 6-[(2,4-dimethylcyclohexyl)amino]-8-(3-methylphenyl)-7-[4-(trifluoromethyl)benzyl]-7H-purine-2-carboxylic acid]
- IC50 (Table 6): 305 nM

SMILES: Cc1cccc(-c2nc3nc(C(=O)O)nc(N[C@H](C)c4cccc(Cl)c4)c3n2Cc2ccc(C(F)(F)F)cc2)c1 [Example 6.27, 6-{[(1R)-1-(3-chlorophenyl)ethyl]amino}-8-(3-methylphenyl)-7-[4-(trifluoromethyl)benzyl]-7H-purine-2-carboxylic acid]
- IC50 (Table 6): 2360 nM

SMILES: C[C@@H](Nc1nc(C(=O)O)nc2nc(N3CCCCC3c3ccncc3)n(Cc3ccc(C(F)(F)F)cc3)c12)C1CCC1 (stereo partly drawn) [Example 9.115, 6-{[(1R)-1-cyclobutylethyl]amino}-8-(2-pyridin-4-ylpiperidin-1-yl)-7-[4-(trifluoromethyl)benzyl]-7H-purine-2-carboxylic acid]
- IC50 (Table 9): 16.6 nM

SMILES: C[C@@H]1CN(C(=O)C(C)(C)C)CCN1c1nc2nc(-c3noc(=O)[nH]3)nc(N[C@H](C)C3CCC3)c2n1C[C@H]1CC[C@H](C)CC1 [Example 17.15, 3-(6-{[(1R)-1-cyclobutylethyl]amino}-8-[(2R)-4-(2,2-dimethylpropanoyl)-2-methylpiperazin-1-yl]-7-[(trans-4-methylcyclohexyl)methyl]-7H-purin-2-yl)-1,2,4-oxadiazol-5(4H)-one]
- IC50 (Table 17.2): 4.3 nM

SMILES: CC(=O)c1nc(N[C@H](C)C2CCC2)c2c(n1)nc(-c1cc(C(C)C)ccn1)n2C[C@H]1CC[C@H](C)CC1 [Example 12.5, 1-(6-{[(1R)-1-cyclobutylethyl]amino}-7-[(trans-4-methylcyclohexyl)methyl]-8-[4-(propan-2-yl)pyridin-2-yl]-7H-purin-2-yl)ethanone]
- IC50 [1]: 471 nM

SMILES: C[C@@H](Nc1nc2nc(C(=O)O)nc(N[C@H](C)C3CCC3)c2n1Cc1ccc(C(F)(F)F)cc1)c1ccccc1 [Example 9.17]
- IC50 (Table 9): 15.8 nM

SMILES: C[C@H]1CC[C@H](Cn2c(N3CCOC[C@H]3c3ccccc3F)nc3nc(-c4n[nH]c(=O)o4)nc(-c4cncc(Cl)c4)c32)CC1 [Example 16.95, 5-{6-(5-chloropyridin-3-yl)-8-[(3R)-3-(2-fluorophenyl)morpholin-4-yl]-7-[(trans-4-methylcyclohexyl)methyl]-7H-purin-2-yl}-1,3,4-oxadiazol-2(3H)-one]
- IC50 [1]: 0.494 nM

SMILES: C[C@@H](Nc1nc(-c2noc(=O)[nH]2)nc2nc(C3(O)CCOCC3)n(C[C@H]3CC[C@H](C)CC3)c12)C1CCC1 [Example 22.64, 3-(6-{[(1R)-1-cyclobutylethyl]amino}-8-(4-hydroxytetrahydro-2H-pyran-4-yl)-7-[(trans-4-methylcyclohexyl)methyl] -7H-purin-2-yl)-1,2,4-oxadiazol-5(4H)-one]
- IC50 (Table 22): 49 nM

SMILES: C[C@H]1CC[C@H](Cn2c(C(O)C3CCOCC3)nc3nc(-c4n[nH]c(=O)o4)nc(-c4cccc(Cl)c4)c32)CC1 (mixture of isomers) [Example 23.1, 5-{6-(3-chlorophenyl)-8-[hydroxy(tetrahydro-2H-pyran-4-yl)methyl]-7-[(trans-4-methylcyclohexyl)methyl] -7H-purin-2-yl}-1,3,4-oxadiazol-2(3H)-one]
- IC50 (Table 23): 67.3 nM

SMILES: CC(C)c1ccnc(-c2nc3nc(C(=O)O)nc(OC(C)C4CCC4)c3n2Cc2ccc(C(F)(F)F)c(F)c2)c1 (racemic) [Example 17.7, 6-(1-cyclobutylethoxy)-7-[3-fluoro-4-(trifluoromethyl)benzyl]-8-[4-(propan-2-yl)pyridin-2-yl]-7H-purine-2-carboxylic acid]
- IC50 [1]: 15 nM

SMILES: Cc1cccc(-c2nc3nc(C(=O)O)nc(NC4CCC(C)CC4)c3n2Cc2ccc(C(F)(F)F)cc2)c1 (stereo not drawn) [Example 6.19, 6-[(4-methylcyclohexyl)amino]-8-(3-methylphenyl)-7-[4-(trifluoromethyl)benzyl]-7H-purine-2-carboxylic acid]
- IC50 (Table 6): 869 nM

SMILES: CC(C)C(O)c1nc2nc(-c3noc(=O)[nH]3)nc(N[C@H](C)C3CCC3)c2n1C[C@H]1CC[C@H](C)CC1 (stereo partly drawn) [Example 22.48, 3-(6-{[(1R)-1-cyclobutylethyl]amino}-8-(1-hydroxy-2-methylpropyl)-7-[(trans-4-methylcyclohexyl)methyl] -7H-purin-2-yl)-1,2,4-oxadiazol-5(4H)-one]
- IC50 (Table 22): 30.2 nM

SMILES: C[C@@H]1COC[C@@H](C)N1c1nc2nc(-c3noc(=O)[nH]3)nc(N[C@H](C)C3CCC3)c2n1C[C@H]1CC[C@H](C)CC1 [Example 11.129, 3-(6-{[(1R)-1-cyclobutylethyl]amino}-8-[(3R,5R)-3,5-dimethylmorpholin-4-yl]-7-[(trans-4-methylcyclohexyl)methyl]-7H-purin-2-yl)-1,2,4-oxadiazol-5(4H)-one]
- IC50 (Table 11): 0.788 nM

SMILES: CC(=O)c1nc2nc(-c3noc(=O)[nH]3)nc(N[C@H](C)C3CCC3)c2n1C[C@H]1CC[C@H](C)CC1 [Example 22.32, 3-(8-acetyl-6-{[(1R)-1-cyclobutylethyl]amino}-7-[(trans-4-methylcyclohexyl)methyl] -7H-purin-2-yl)-1,2,4-oxadiazol-5(2H)-one]
- IC50 (Table 22): 25.3 nM
